Values of other authors as cited in patent US20110021553A1, “IMMUNOSUPPRESSIVE MACROLIDE POWDER FOR ORAL SUSPENSION” (priority 2008, published 2011).

Tests used:
[1] = system: skin mast cells, basophils and eosinophils; details: in vitro
[2] = system: albumin and α1-glicoprotein; details: mainly albumin and α1-glicoprotein
[3] = not given; remark: listed apart in the source
[4] = main metabolites via CYP3A4

Structure (SMILES)	release of mediators [1]	excreted in unaltered state through urine (human, in vivo)	elimination through bile (main channel of elimination)	Bioavailability (oral, reduced with the presence of food)	time to concentration in steady state (orally 0.3 mg/Kg/day, liver transplant patients, majority of the cases)	combination to proteins [2]	solubility in organic solvents ([3]; methanol, ethanol, acetone, ethyl acetate, chloroform and diethyl ether)	solubility in water ([3]; water)	immunosuppressive effect [4]
C=CC[C@@H]1/C=C(\C)C[C@H](C)C[C@H](OC)[C@H]2O[C@@](O)(C(=O)C(=O)N3CCCC[C@H]3C(=O)O[C@H](/C(C)=C/[C@@H]3CC[C@@H](O)[C@H](OC)C3)[C@H](C)[C@@H](O)CC1=O)[C@H](C)C[C@@H]2OC (relative stereo) [Tacrolimus, [3S-[3R*[E(1S*,3S*,4S*)], 4S*,5R*,8S*,9E,12R*,14R*,15S*,16R*,18S*,19S*,26aR*]]-5,6,8,11,12,13,14,15,16,17,18,19,24,25,26,26a-hexadecahydro-5,19-dihydroxy-3-[2-(4-hidroxy-3-metoxy-cyclohexyl)-1-metyletenyl]-14,16-dimethoxy-4,10,12,18-tetramethyl-8-(2-propenyl)-15,19-epoxy-3H-pyrido [2,1-c] [1,4] oxazacyclotricosine-1,7,20,21 (4H, 23H)-tetraone, monohydrate]	decreases the release of the mediators	less than 1%	more than 90%	4-89%	3 days	99%	soluble	insoluble	
C=CCC1C=C(C)CC(C)CC(OC)C2OC(O)(C(=O)C(=O)N3CCCCC3C(=O)OC(C(C)=CC3CCC(O)C(OC)C3)C(C)C(O)CC1=O)C(C)CC2O (stereo not shown) [13-O-desmethyl tacrolimus]									neither of which have a measurable immunosuppresive effect
C=CCC1C=C(C)CC(C)CC(O)C2OC(O)(C(=O)C(=O)N3CCCCC3C(=O)OC(C(C)=CC3CCC(O)C(OC)C3)C(C)C(O)CC1=O)C(C)CC2OC (stereo not shown) [15-O-desmethyl tacrolimus]									neither of which have a measurable immunosuppresive effect
